Assays:
EPHA8 = EPHA8 (Homo sapiens, UniProt P29322); experiment: KINOMEscan competition binding, single dose […]; settings: read-out: % of control at 1 μM
CDKL5 = CDKL5 (Homo sapiens, UniProt O76039); experiment: biochemical; design: KINOMEscan active-site-directed competition binding panel, 468 kinases, percent of DMSO control at 1 uM; settings: KINOMEscan binding, percent of DMSO control; read-out: Ctrl%
EIF2AK1 = EIF2AK1 (Homo sapiens, UniProt Q9BQI3); experiment: biochemical; design: KINOMEscan active-site-directed competition binding panel, 468 kinases, percent of DMSO control at 1 uM; settings: KINOMEscan binding, percent of DMSO control; read-out: Ctrl%
LCK = LCK (Homo sapiens, UniProt P06239); experiment: KINOMEscan competition binding, single dose […]; settings: read-out: % of control at 1 μM
DDR1 = DDR1 (Homo sapiens, UniProt Q08345); experiment: KINOMEscan competition binding, single dose […]; settings: read-out: % of control at 1 μM
RAF1 = RAF1 (Homo sapiens, UniProt P04049); experiment: KINOMEscan competition binding, single dose […]; settings: read-out: % of control at 1 μM
STK33 = STK33 (Homo sapiens, UniProt Q9BYT3); experiment: biochemical; design: KINOMEscan active-site-directed competition binding panel, 468 kinases, percent of DMSO control at 1 uM; settings: KINOMEscan binding, percent of DMSO control; read-out: Ctrl%
LTK = LTK (Homo sapiens, UniProt P29376); experiment: biochemical; design: KINOMEscan active-site-directed competition binding panel, 468 kinases, percent of DMSO control at 1 uM; settings: KINOMEscan binding, percent of DMSO control; read-out: Ctrl%
DYRK1B = DYRK1B (Homo sapiens, UniProt Q9Y463); experiment: biochemical; design: KINOMEscan active-site-directed competition binding panel, 468 kinases, percent of DMSO control at 1 uM; settings: KINOMEscan binding, percent of DMSO control; read-out: Ctrl%
Sequence of DYRK1B (Q9Y463 whole entry): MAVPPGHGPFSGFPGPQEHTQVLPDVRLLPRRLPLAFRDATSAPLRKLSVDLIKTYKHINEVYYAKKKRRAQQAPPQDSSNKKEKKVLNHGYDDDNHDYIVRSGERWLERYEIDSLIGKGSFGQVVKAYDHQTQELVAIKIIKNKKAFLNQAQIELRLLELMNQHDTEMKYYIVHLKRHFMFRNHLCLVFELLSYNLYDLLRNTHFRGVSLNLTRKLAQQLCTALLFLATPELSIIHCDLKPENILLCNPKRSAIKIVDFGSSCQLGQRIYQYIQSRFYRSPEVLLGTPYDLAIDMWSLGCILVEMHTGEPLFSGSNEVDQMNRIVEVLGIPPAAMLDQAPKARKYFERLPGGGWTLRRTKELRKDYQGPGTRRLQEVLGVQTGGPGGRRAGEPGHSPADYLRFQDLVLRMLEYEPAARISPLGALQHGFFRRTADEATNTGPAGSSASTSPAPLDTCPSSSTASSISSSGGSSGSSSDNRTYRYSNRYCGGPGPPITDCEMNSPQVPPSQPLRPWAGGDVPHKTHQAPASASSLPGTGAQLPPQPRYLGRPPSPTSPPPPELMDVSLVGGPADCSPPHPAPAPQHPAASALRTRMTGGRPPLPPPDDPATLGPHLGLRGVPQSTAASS

Sequence of EIF2AK1 (Q9BQI3 whole entry): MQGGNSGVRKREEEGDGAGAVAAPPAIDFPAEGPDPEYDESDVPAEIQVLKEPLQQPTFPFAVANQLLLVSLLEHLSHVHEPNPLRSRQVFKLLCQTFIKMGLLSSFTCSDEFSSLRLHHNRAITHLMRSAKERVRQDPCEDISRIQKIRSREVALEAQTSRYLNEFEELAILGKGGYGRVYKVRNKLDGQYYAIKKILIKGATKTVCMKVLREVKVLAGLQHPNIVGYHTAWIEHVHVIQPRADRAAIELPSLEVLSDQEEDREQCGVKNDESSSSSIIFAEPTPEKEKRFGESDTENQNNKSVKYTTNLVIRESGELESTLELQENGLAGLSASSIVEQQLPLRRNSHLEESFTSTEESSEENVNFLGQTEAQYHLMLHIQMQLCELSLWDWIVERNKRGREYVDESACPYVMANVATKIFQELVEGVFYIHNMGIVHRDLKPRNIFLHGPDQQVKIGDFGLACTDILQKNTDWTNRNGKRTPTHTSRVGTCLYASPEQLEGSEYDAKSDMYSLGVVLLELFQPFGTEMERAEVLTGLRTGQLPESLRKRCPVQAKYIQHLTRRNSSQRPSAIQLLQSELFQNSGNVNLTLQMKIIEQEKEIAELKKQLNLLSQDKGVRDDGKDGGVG
Sequence of RAF1 (P04049 whole entry): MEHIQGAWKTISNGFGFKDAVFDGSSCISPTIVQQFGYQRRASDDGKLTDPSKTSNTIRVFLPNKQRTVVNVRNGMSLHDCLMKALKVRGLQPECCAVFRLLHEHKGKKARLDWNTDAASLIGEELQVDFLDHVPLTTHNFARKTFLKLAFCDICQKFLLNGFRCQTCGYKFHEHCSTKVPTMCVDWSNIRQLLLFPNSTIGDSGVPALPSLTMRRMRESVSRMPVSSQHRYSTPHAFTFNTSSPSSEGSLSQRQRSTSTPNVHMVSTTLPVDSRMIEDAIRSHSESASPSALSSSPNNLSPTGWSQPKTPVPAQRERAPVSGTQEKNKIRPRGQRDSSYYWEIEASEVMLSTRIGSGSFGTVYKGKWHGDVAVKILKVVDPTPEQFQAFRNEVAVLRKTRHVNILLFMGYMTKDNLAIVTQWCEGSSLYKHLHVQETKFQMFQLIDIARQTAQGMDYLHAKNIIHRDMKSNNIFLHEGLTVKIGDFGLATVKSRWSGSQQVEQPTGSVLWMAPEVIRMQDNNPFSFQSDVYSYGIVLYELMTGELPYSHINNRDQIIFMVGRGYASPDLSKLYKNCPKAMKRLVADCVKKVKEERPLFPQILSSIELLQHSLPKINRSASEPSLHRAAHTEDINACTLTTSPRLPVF
Sequence of LCK (P06239 2-509): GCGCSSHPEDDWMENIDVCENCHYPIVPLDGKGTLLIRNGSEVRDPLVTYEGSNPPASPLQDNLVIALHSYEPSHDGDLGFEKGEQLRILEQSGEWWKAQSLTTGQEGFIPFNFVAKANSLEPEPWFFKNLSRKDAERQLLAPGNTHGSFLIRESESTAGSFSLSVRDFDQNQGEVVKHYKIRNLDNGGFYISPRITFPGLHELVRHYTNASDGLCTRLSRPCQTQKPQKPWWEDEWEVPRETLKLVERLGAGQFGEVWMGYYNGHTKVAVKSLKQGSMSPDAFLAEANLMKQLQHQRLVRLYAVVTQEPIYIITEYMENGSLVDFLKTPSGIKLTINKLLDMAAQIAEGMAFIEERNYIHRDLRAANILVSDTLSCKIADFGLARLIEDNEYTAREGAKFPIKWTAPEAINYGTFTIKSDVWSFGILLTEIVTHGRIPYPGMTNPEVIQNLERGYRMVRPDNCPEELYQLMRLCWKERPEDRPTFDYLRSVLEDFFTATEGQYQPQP
Sequence of CDKL5 (O76039 whole entry): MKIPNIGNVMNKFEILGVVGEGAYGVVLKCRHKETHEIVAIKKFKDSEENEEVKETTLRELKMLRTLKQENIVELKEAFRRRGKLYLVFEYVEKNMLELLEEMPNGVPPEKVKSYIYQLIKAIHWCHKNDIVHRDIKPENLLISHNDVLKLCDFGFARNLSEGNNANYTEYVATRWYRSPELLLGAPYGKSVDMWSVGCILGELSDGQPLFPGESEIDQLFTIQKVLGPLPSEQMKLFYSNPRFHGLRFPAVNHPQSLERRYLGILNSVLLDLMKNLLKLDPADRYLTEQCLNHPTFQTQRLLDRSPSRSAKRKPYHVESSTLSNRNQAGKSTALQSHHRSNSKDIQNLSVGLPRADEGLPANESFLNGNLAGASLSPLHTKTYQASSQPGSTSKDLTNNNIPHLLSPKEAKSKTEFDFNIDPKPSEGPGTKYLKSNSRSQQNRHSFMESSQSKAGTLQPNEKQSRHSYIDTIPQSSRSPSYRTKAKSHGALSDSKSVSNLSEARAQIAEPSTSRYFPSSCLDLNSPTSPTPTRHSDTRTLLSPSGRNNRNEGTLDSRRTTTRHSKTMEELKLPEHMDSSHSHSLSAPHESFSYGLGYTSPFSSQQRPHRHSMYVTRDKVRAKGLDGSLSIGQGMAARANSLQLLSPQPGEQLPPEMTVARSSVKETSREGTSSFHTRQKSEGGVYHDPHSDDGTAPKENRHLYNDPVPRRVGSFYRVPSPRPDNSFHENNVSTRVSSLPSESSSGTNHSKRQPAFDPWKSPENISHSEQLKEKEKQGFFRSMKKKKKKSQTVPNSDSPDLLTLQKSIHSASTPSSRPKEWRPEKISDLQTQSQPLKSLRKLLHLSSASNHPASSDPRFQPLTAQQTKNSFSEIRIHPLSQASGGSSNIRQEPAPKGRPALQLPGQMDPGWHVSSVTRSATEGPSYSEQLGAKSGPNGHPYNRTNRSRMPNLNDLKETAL
Sequence of STK33 (Q9BYT3 whole entry): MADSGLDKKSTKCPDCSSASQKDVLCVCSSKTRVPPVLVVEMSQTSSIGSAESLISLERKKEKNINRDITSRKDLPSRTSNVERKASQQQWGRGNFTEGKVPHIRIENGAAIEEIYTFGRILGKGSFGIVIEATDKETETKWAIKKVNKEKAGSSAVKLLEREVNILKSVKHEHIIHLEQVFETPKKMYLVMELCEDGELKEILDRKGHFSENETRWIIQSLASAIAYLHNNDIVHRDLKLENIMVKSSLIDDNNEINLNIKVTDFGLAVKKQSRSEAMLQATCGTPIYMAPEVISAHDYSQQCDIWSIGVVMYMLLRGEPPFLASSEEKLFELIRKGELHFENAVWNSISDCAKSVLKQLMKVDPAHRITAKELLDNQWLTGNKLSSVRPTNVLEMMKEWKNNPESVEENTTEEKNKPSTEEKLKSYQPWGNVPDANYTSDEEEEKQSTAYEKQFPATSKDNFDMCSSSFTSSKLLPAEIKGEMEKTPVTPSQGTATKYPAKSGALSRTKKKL
Sequence of DDR1 (Q08345 19-913): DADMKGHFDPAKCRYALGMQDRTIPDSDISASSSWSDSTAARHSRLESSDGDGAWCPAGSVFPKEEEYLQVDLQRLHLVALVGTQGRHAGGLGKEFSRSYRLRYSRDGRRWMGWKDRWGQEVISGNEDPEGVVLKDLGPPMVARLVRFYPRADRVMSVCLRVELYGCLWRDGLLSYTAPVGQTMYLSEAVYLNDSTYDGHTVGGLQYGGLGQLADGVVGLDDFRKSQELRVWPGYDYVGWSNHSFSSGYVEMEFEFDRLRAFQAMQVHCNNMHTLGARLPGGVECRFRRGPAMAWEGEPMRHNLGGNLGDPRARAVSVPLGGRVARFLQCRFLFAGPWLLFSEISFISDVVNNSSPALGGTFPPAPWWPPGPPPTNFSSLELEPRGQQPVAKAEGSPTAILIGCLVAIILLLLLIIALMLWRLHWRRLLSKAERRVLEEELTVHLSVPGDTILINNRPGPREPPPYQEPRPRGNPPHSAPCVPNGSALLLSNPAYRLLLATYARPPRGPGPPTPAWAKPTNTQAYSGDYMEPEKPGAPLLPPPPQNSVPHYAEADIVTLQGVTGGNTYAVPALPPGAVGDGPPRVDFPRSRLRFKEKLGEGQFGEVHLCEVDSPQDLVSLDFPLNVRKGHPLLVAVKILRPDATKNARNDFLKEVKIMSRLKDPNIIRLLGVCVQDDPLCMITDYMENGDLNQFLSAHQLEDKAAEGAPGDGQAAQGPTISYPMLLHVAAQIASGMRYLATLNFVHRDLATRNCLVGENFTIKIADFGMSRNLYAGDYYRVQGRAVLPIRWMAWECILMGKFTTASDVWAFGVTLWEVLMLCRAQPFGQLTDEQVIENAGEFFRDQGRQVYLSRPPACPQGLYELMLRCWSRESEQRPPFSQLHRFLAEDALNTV

Cc1ccc(NC(=O)c2cccc(C(F)(F)F)c2)cc1Nc1cc(-c2cccnc2)nc2[nH]ccc12 [HZX-02-059]
remaining binding at 1 µM (EPHA8): 0.5% | remaining binding at 1 µM (CDKL5): 90% | remaining binding at 1 µM (EIF2AK1): 79% | remaining binding at 1 µM (LCK): 0.9% | remaining binding at 1 µM (DDR1): 0.75% | remaining binding at 1 µM (RAF1): 0.95% | remaining binding at 1 µM (STK33): 94% | remaining binding at 1 µM (LTK): 79% | remaining binding at 1 µM (DYRK1B): 97%

Reference: publication PMC8799717, “Pharmacological targeting PIKfyve and tubulin as an effective treatment strategy for double-hit lymphoma” (Cell Death Discovery, 2022)
